Measurements: ChEMBL document CHEMBL4330055, “Development of Inhibitors of the Programmed Cell Death-1/Programmed Cell Death-Ligand 1 Signaling Pathway” (J Med Chem, 2019)
Where a SMILES comes first, the peptide text is derived from it. Bridges are numbered along the chain shown (N, C = ends).

Experiments:
[1] = biological target: T1, Programmed cell death protein 1/Programmed cell death 1 ligand 1 (Homo sapiens, UniProt Q15116+Q9NZQ7); assay: Inhibition of recombinant human PD1 (25 to 167 residues)/human PDL1 (19 to 238 residues) interaction after 40 mins by HTRF assay; assay type: protein-complex assay
[2] = biological target: Programmed cell death 1 ligand 1 (Mus musculus) (UniProt Q9EP73); assay: Inhibition of PDL1 in C57BL6 mouse splenocytes assessed as protection against ant-CD3/CD28-stimulated cell proliferation at 100 nM after 4 hrs by CFSE-based FACS analysis relative to control
[3] = biological target: T1, Programmed cell death protein 1/Programmed cell death 1 ligand 1; assay: Inhibition of PD1/PDL1 (unknown origin) at 500 uM after 15 mins by HTRF assay relative to control; assay type: protein-complex assay
[4] = biological target: T2, Programmed cell death 1 ligand 1 (Homo sapiens, UniProt Q9NZQ7); assay: Binding affinity to biotinylated PDL1 (unknown origin) expressed in Escherichia coli OmpX membrane after 45 mins by SAPE-fluorescence based flow cytometry; assay type: cell membranes
[5] = biological target: T1, Programmed cell death protein 1/Programmed cell death 1 ligand 1; assay: Inhibition of PD1/PDL1 (unknown origin) interaction at 10 uM after 15 mins by HTRF assay relative to control; assay type: protein-complex assay
[6] = biological target: T2, Programmed cell death 1 ligand 1; assay: Binding affinity to Fc-labeled human PDL1 expressed in Escherichia coli by SPR spectroscopy
[7] = biological target: T1, Programmed cell death protein 1/Programmed cell death 1 ligand 1; assay: Inhibition of PD1/PDL1 (unknown origin) interaction by HTRF assay; assay type: protein-complex assay
[8] = biological target: T3, V-type immunoglobulin domain-containing suppressor of T-cell activation (Homo sapiens) (UniProt Q9H7M9); assay: Inhibition of VISTA signaling in human PBMC assessed as IFNgamma release at 100 nM after 30 mins by ELISA
T3 sequence (whole entry): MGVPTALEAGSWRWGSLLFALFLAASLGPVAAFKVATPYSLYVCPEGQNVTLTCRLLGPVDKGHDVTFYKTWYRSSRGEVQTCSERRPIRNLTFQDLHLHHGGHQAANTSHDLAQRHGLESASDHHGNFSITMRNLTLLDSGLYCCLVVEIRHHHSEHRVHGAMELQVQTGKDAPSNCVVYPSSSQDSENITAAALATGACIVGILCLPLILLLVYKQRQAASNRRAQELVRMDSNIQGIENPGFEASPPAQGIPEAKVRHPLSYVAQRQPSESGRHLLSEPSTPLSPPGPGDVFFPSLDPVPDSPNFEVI

[9] = biological target: T1, Programmed cell death protein 1/Programmed cell death 1 ligand 1; assay: Inhibition of PD1/PDL1 interaction in human jurkat cells co-expressing TCR promoter assessed as TCR activation by luciferase reporter gene assay; assay type: cell-based

T2 sequence (Q9NZQ7 whole entry): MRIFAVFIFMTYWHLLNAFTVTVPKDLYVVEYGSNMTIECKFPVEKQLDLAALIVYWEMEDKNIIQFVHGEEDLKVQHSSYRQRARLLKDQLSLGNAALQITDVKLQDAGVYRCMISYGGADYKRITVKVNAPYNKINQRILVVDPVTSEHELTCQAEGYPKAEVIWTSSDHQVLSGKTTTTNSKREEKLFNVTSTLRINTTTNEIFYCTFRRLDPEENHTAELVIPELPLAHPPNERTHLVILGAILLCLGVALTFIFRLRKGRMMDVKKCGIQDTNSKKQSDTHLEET
Chain of Programmed cell death 1 ligand 1 (Mus musculus) (Q9EP73 whole entry): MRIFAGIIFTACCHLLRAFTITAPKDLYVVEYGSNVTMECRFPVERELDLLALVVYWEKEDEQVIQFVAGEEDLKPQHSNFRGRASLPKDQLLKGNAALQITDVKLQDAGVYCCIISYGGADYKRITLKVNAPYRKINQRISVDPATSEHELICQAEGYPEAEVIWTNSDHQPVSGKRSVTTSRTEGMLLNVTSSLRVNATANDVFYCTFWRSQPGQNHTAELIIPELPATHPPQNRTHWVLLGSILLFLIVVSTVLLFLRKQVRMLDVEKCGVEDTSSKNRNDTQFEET
T1 sequence (Q15116 whole entry, the tested form may be a part): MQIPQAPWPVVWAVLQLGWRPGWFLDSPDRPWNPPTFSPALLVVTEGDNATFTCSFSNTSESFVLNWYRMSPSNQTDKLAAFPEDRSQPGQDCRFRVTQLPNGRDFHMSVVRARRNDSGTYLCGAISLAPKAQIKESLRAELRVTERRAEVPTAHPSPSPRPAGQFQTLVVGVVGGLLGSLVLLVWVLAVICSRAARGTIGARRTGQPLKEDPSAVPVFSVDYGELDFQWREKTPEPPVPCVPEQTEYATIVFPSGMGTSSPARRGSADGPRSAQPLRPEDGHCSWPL
T1 sequence (Q9NZQ7 whole entry, the tested form may be a part): as the sequence (Q9NZQ7 whole entry) above

N#Cc1c(Nc2nccc3cc(CNCCO)cnc23)cccc1C1=CCCCC1
IC50 [1]: ≤ 0.1 µM

C[C@@H](O)[C@@H]1C(=O)N[C@H](CO)C(=O)N[C@H](C(=O)N[C@@H](CO)C(=O)N[C@@H](Cc2ccccc2)C(N)=O)CCCCNC(=O)CC[C@H](NC(=O)[C@@H](N)CO)C(=O)N1C
inhibition [2]: 82%

C[C@@H](O)C(NC(=O)[C@H](CCC(=O)O)NC(=O)[C@@H](N)CO)C(=O)N[C@H](CO)C(=O)N[C@H](CCCCN)C(=O)N[C@H](CO)CN[C@H](Cc1ccccc1)C(N)=O (single isomer, unassigned)
inhibition [2]: 81%

COCCNC(=O)CC[C@H](NS(=O)(=O)C1CC1)c1nnc(-c2ccccc2OC)o1
inhibition [2]: 97%

CN(C)CCOc1ccc([N+](=O)[O-])c(OC(=O)N(C)C)c1
inhibition [3]: 43%

C[C@H](NC(=O)[C@H](Cc1ccc(O)cc1)NC(=O)[C@H](CCC(N)=O)NC(=O)CNC(=O)[C@@H](N)CO)C(=O)N[C@@H](CO)C(=O)N[C@@H](Cc1ccc(O)cc1)C(=O)N[C@@H](Cc1cnc[nH]1)C(=O)N[C@@H](CS)C(=O)N[C@@H](Cc1c[nH]c2ccccc12)C(=O)N[C@@H](CS)C(=O)N[C@@H](Cc1c[nH]c2ccccc12)C(=O)N[C@@H](CCCNC(=N)N)C(=O)N[C@@H](CC(=O)O)C(=O)N1CCC[C@H]1C(=O)NCC(=O)N[C@@H](CCCNC(=N)N)C(=O)N[C@@H](CO)C(=O)NCC(=O)NCC(=O)N[C@@H](CO)C(=O)N[C@@H](CCCCN)C(=O)O (H-SGQYASYHCWCWRDPGRSGGSK-OH)
Kd [4]: 0.094 µM

COc1ccc(Nc2cc(C(=O)Nc3ccc(Oc4ccccc4)cc3)ccn2)cc1
inhibition [5]: 36%

Cc1cc(C(=O)Nc2cccc(-c3ccccc3)c2C)ncc1CNCCO
IC50 [1]: ≤ 0.1 µM

Cc1c(-c2ccccc2)cccc1-n1cc2c(n1)CNCC2
IC50 [1]: ≤ 0.1 µM

C[C@@H](O)[C@@H]1NC(=O)N[C@@H](C(N)=O)C(=O)NNC(=O)[C@@H](CO)NC(=O)COCCOCCNC1=O
inhibition [2]: 95%

N#Cc1c(-c2ccc3c(c2)OCCO3)cccc1N1CCC(NC2CCCOC2)CC1 (configuration not stated)
IC50 [1]: ≤ 0.1 µM

C[C@@H](O)[C@H](NC(=O)[C@@H]1CCCN1C(=O)[C@H](CCCCN)NC(=O)[C@H](CO)NC(=O)[C@H](Cc1ccc(O)cc1)NC(=O)[C@@H](N)CC(N)=O)C(=O)N[C@@H](CC(=O)O)C(=O)N[C@@H](CCCNC(=N)N)C(=O)N[C@@H](CCC(N)=O)C(=O)N[C@@H](Cc1ccc(O)cc1)C(=O)N[C@@H](Cc1cnc[nH]1)C(=O)N[C@@H](Cc1ccccc1)C(=O)O
Kd [6]: 0.51 µM

H-KHAHHTHNLRLP-OH
Kd [6]: 1.13 µM

Cc1c(-c2ccccc2)cccc1-c1cc2ccc(CNCCO)cn2n1
IC50 [1]: ≤ 0.1 µM

C[C@@H](O)[C@H](N)c1nnc([C@H](CCC(N)=O)NC(=O)N[C@@H](CO)C(=O)O)o1
inhibition [2]: 92%

NC(=O)C[C@H](NC(=O)[C@@H]1C[C@H](O)CN1)c1nc(N2CCCC2)no1
inhibition [2]: 91%

Cc1c(/C=C/c2ncc(CNC(CO)C(=O)O)cc2C(F)(F)F)cccc1-c1ccc2c(c1)OCCO2 (configuration not stated)
IC50 [7]: 0.036 µM

C[C@@H](O)[C@H](N)c1noc([C@H](Cc2ccc(O)cc2)NC(=O)N2CCC[C@H]2C(=O)O)n1
inhibition [2]: 99%

C[C@@H](O)[C@@H]1NC(=O)COCCOCCNC(=O)[C@@H](CO)NC(=O)N[C@H](C(N)=O)C(=O)NNC1=O
inhibition [2]: 94%

COc1cc2oc(-c3cccc(-c4ccccc4)c3C)nc2cc1CNCCO
IC50 [1]: ≤ 0.1 µM

N#Cc1c(NC(=O)c2nc3c(s2)CNCC3)cccc1-c1ccc2c(c1)OCC2
IC50 [1]: ≤ 0.1 µM

NCCCC[C@H](NC(=O)N[C@@H](CC(N)=O)C(=O)NNC(=O)[C@@H](N)CO)C(=O)O
inhibition [2]: 87%

H-MRNRERYPKPYY-OH
Kd [6]: 22 µM

C[C@@H](O)[C@@H](NC(=O)N[C@@H](CC(N)=O)c1nc([C@@H](N)CO)no1)C(=O)O
inhibition [2]: 97%
inhibition [8]: > 70%

C[C@@H](O)[C@H](NC(=O)N[C@@H](CC(N)=O)c1nc([C@@H](N)Cc2ccccc2)no1)C(=O)O
inhibition [8]: 99%

CC[C@H](C)[C@@H]1NC(=O)[C@H](CC(C)C)NC(=O)[C@H](Cc2ccccc2)NC(=O)CSC[C@@H](C(=O)NCC(N)=O)NC(=O)[C@H](CCCNC(=N)N)NC(=O)[C@H](Cc2ccccc2)NC(=O)[C@H](C(C)C)NC(=O)[C@H](CCCNC(=N)N)NC(=O)[C@H](CC(=O)O)NC(=O)[C@H](CCCNC(=N)N)NC(=O)[C@H]([C@@H](C)CC)NC(=O)[C@H](C(C)C)NC1=O ({CH2CO}-FLIVIRDRVFRCG-NH2; thioether N-12)
EC50 [9]: 6.3 µM
